The values below come from ChEMBL document CHEMBL3616395, “Discovery of 4-arylamido 3-methyl isoxazole derivatives as novel FMS kinase inhibitors” (Eur J Med Chem, 2015).

Molecules are shown by their SMILES. Calls of active or inactive are those of the source. The rule behind the calls is not given here. Bounds are passed on as bounds.

Series [1] has as its system U-937. Briefly: Antiproliferative activity against human U937 cells after 24 hrs by MTT assay. To be noted: U-937, 24 h. It is filed as functional.
Series [2] deals with A375P. Briefly: Antiproliferative activity against human A375P cells after 24 hrs by MTT assay. The series is classed as functional, cell-based. Background: Tetrazolium assays rely on reduction of a dye to a coloured formazan, in cell work by metabolically active cells.
Series [3] can be described thus: Cytotoxicity against human HS27 cells after 24 hrs by MTT assay. The series is classed as cell-based.
Series [4] addresses Serine/threonine-protein kinase mTOR (Homo sapiens, UniProt P42345). Description: Inhibition of mTOR (unknown origin) after 40 mins by scintillation counting analysis.

For the molecule `Cc1ccc(NC(=O)Nc2ccc(Cl)c(Cl)c2)cc1NC(=O)c1cnoc1C`, the GI50 (usually the concentration at which growth is held to half of that of the control) in series [1] worked out at 1.89 µM. Further, the result in series [2] was inactive. In series [3], this molecule yielded a GI50 at 24 h above 30 µM.
For the molecule `Cc1ccc(NC(=O)c2cc(-n3ccnc3C)cc(C(F)(F)F)c2)cc1NC(=O)c1cnoc1C`, halving of growth in series [1] (GI50) required 0.019 µM. The outcome in series [2] was inactive. This molecule also had a GI50 at 24 h in series [3] above 30 µM.
`Cc1ccc(NC(=O)c2cnn(-c3ccccc3)c2C(F)(F)F)cc1NC(=O)c1cnoc1C` had a GI50 in series [1] of 0.139 µM. Besides, in series [2], the outcome was inactive. In addition, the 50% growth inhibitory concentration (GI50) at 24 h in series [3] is above 30 µM.
For `Cc1ccc(NC(=O)c2ccccc2Sc2ccccc2C#N)cc1NC(=O)c1cnoc1C` the same measures were above 30 µM, “inactive” and above 30 µM.
`Cc1cc(C)cc(C(=O)Nc2ccc(C)c(NC(=O)c3cnoc3C)c2)c1` gave a GI50 in series [1] of 3.1 µM. The outcome in series [2] was inactive. In series [3], this molecule had a GI50 at 24 h above 30 µM.
On to `Cc1cc(NC(=O)Nc2cccc(Cl)c2)ccc1NC(=O)c1cnoc1C`, for which the GI50 in series [1] was above 30 µM. For the same molecule, in series [2], the outcome was inactive. In series [3], the GI50 at 24 h was above 30 µM.
Consider `Cc1ccc(NC(=O)C(c2ccc(Cl)cc2)c2ccc(Cl)cc2)cc1NC(=O)c1cnoc1C`, for which, in series [1], the concentration for 50% growth inhibition (GI50) was above 30 µM. The result in series [2] was inactive. This molecule returned a GI50 at 24 h in series [3] above 30 µM.
`Cc1ccc(NC(=O)Cc2c[nH]c3ccccc23)cc1NC(=O)c1cnoc1C` came in with a GI50 in series [1] above 30 µM. Also, the outcome in series [2] was inactive. Also, in series [3], the GI50 at 24 h was above 30 µM.
Regarding `Cc1ccc(NC(=O)Nc2ccccc2F)cc1NC(=O)c1cnoc1C`, the concentration for 50% growth inhibition (GI50) in series [1] is above 30 µM. For the same molecule, the outcome in series [2] was inactive. Moreover, in series [3], the GI50 at 24 h was above 30 µM.
Regarding `CNC(=O)c1cc(Oc2ccc(NC(=O)Nc3ccc(Cl)c(C(F)(F)F)c3)cc2)ccn1` [SORAFENIB], the result in series [2] was inactive. For the same molecule, the GI50 at 24 h in series [3] is above 30 µM.
`Cc1cn(-c2cc(C(=O)Nc3ccc(C)c(NC(=O)c4cnoc4C)c3)cc(C(F)(F)F)c2)cn1` gave a GI50 in series [1] of 0.049 µM. Further, the outcome in series [2] was inactive. The GI50 at 24 h in series [3] is above 30 µM.
Consider `Cc1ccc(NC(=O)Cc2ccccc2F)cc1NC(=O)c1cnoc1C`, for which the GI50 in series [1] was above 30 µM. The result in series [2] was inactive. The same molecule yielded a GI50 at 24 h in series [3] above 30 µM.
In series [1], `Cc1cc(NC(=O)Nc2ccc(Cl)cc2)ccc1NC(=O)c1cnoc1C` returned a GI50 above 30 µM. Besides, the result in series [2] was inactive. The same molecule registered a GI50 at 24 h in series [3] above 30 µM.
For the molecule `Cc1ccc(NC(=O)C2(C)CCc3c(C)c(O)c(C)c(C)c3O2)cc1NC(=O)c1cnoc1C` (stereo unspecified), the GI50 in series [1] is above 30 µM. Further, the outcome in series [2] was inactive. The molecule also gave a 50% growth inhibitory concentration (GI50) at 24 h in series [3] above 30 µM.
In series [1], `Cc1cc(NC(=O)Nc2cccc(C(F)(F)F)c2)ccc1NC(=O)c1cnoc1C` displayed a GI50 above 30 µM. Also, the result in series [2] was inactive. Further, in series [3], the GI50 at 24 h was above 30 µM.
`Cc1ccc(NC(=O)c2ccc(Cl)c(C(F)(F)F)c2)cc1NC(=O)c1cnoc1C`: in series [1], the GI50 is above 30 µM. In addition, in series [2], the outcome was inactive. The molecule further had a GI50 at 24 h in series [3] above 30 µM.
`Cc1cc(NC(=O)Nc2ccc(Cl)c(C(F)(F)F)c2)ccc1NC(=O)c1cnoc1C`: the GI50 in series [1] is 16.5 µM. In addition, the outcome in series [2] was inactive. Besides, the 50% growth inhibitory concentration (GI50) at 24 h in series [3] was above 30 µM.
The molecule `Cc1ccc(NC(=O)c2cc(-n3cncc3C)cc(C(F)(F)F)c2)cc1NC(=O)c1cnoc1C` registered a GI50 in series [1] of 0.026 µM. In series [2], the result was inactive. For the same molecule, in series [3], the concentration for 50% growth inhibition (GI50) at 24 h was above 30 µM.
For `CCCS(=O)(=O)Nc1ccc(C)c(NC(=O)c2cnoc2C)c1`, the GI50 in series [1] is above 30 µM. Moreover, the result in series [2] was inactive. The GI50 at 24 h in series [3] was above 30 µM.
Molecule `Cc1cc(NC(=O)Nc2cc(Cl)cc(Cl)c2)ccc1NC(=O)c1cnoc1C` registered a GI50 in series [1] above 30 µM. In series [2], the result was inactive. The same molecule had a GI50 at 24 h in series [3] above 30 µM.
`Cc1ccc(NC(=O)Nc2cccc(C(F)(F)F)c2)cc1NC(=O)c1cnoc1C` gave a GI50 in series [1] above 30 µM. The result in series [2] was inactive. For the same molecule, the GI50 at 24 h in series [3] was above 30 µM.
Molecule `Cc1ccc(NC(=O)Nc2ccc(Cl)c(C(F)(F)F)c2)cc1NC(=O)c1cnoc1C` yielded a GI50 in series [1] above 30 µM. Further, in series [2], the outcome was inactive. Besides, the GI50 at 24 h in series [3] was above 30 µM.
For the molecule `O=c1cc(N2CCOCC2)oc2c(-c3ccccc3)cccc12` [LY-294002], the half-maximal inhibitory concentration (IC50) – broadly, the point on the concentration scale where inhibition reaches its midpoint – in series [4] was found to be 9.9 µM.
On to `Cc1ccc(NC(=O)c2ccc(N3CCOCC3)c(C(F)(F)F)c2)cc1NC(=O)c1cnoc1C`, for which halving of growth in series [1] (GI50) required 0.465 µM. Moreover, in series [2], the result was inactive. In series [3], this molecule yielded a GI50 at 24 h above 30 µM.
In series [1], `Cc1cc(NC(=O)c2cc(N3CCN(C)CC3)cc(C(F)(F)F)c2)ccc1NC(=O)c1cnoc1C` came in with a GI50 above 30 µM. Further, the result in series [2] was inactive. Further, the GI50 at 24 h in series [3] was above 30 µM.
Consider `Cc1ccc(NC(=O)Cc2ccc(-c3ccccc3)cc2)cc1NC(=O)c1cnoc1C`, for which the GI50 in series [1] was above 30 µM. The outcome in series [2] was inactive. In series [3], this molecule returned a GI50 at 24 h above 30 µM.
Consider `Cc1ccc(NC(=O)Nc2cc(Cl)cc(Cl)c2)cc1NC(=O)c1cnoc1C`, for which, in series [1], the GI50 was above 30 µM. Besides, in series [2], the result was inactive. In addition, the GI50 at 24 h in series [3] was above 30 µM.
Regarding `Cc1ccc(NC(=O)Nc2cccc(Cl)c2)cc1NC(=O)c1cnoc1C`, the GI50 in series [1] was above 30 µM. The result in series [2] was inactive. In series [3], this molecule had a GI50 at 24 h above 30 µM.
In series [1], `Cc1cc(NC(=O)Nc2ccc(Cl)c(Cl)c2)ccc1NC(=O)c1cnoc1C` registered a 50% growth inhibitory concentration (GI50) above 30 µM. For the same molecule, in series [2], the result was inactive. The GI50 at 24 h in series [3] is above 30 µM.
Regarding `CCCS(=O)(=O)Nc1ccc(NC(=O)c2cnoc2C)c(C)c1`, the GI50 in series [1] was above 30 µM. Besides, the outcome in series [2] was inactive. Besides, the concentration for 50% growth inhibition (GI50) at 24 h in series [3] was above 30 µM.
With `Cc1ccc(NC(=O)Nc2ccc(Cl)cc2)cc1NC(=O)c1cnoc1C`, the GI50 in series [1] was above 30 µM. For the same molecule, the result in series [2] was inactive. In series [3], this molecule gave a GI50 at 24 h above 30 µM.
Turning to `Cc1cc(NC(=O)Nc2ccccc2F)ccc1NC(=O)c1cnoc1C`, in series [1], the concentration for 50% growth inhibition (GI50) was above 30 µM. For the same molecule, the outcome in series [2] was inactive. In addition, in series [3], the GI50 at 24 h was above 30 µM.
`Cc1ccc(NC(=O)c2ccc(-c3ccccc3)cc2)cc1NC(=O)c1cnoc1C` came in with a GI50 in series [1] above 30 µM. The outcome in series [2] was inactive. In series [3], this molecule showed a GI50 at 24 h above 30 µM.
